Among the test systems are 786-0 renal; EKVX NSCLC; IGROV1 ovarian; KM12 colon; M14 melanoma; SF-268 CNS; SF-295 CNS; SK-OV-3 ovarian; SNB-75 CNS; MDA-MB-435.
Experiment in all cases: inhibition of tumour cell growth, NCI panel, 48 h

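Tested at 5 concentrations; 48 h exposure; 96-well plates; endpoints linearly interpolated, else capped at highest concentration. At the GI50, growth is halved. Definition used: TGI = concentration required for complete inhibition of growth.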

On to `CCSCN(C)c1nc(N(C)C)nc(N(C)C)n1`, for which the TGI in the assay on 786-0 renal, with EKVX NSCLC, in the assay with IGROV1 ovarian, in the assay with KM12 colon, with M14 melanoma and in the assay on SF-268 CNS was greater than 100 µM each time. Besides, the TGI in the assay with SF-295 CNS, with SK-OV-3 ovarian and in the assay on SNB-75 CNS was greater than 100 µM throughout.

Consider `C=C(C)C1CC/C(C)=C/CC[C@]2(C)O[C@@H]2CCC2=CC1OC2=O` (some centres not stated), for which the GI50 in the assay with IGROV1 ovarian was 50.4 µM; in the assay on KM12 colon, 21.6 µM; with M14 melanoma it was 37.2 µM; in the assay on MDA-MB-435, 49.4 µM; in the assay on SF-268 CNS it was greater than 100 µM; with SF-295 CNS it was 24 µM. The GI50 in the assay on SK-OV-3 ovarian was greater than 100 µM. Also, the TGI in the assay with IGROV1 ovarian, in the assay with KM12 colon, in the assay on M14 melanoma, in the assay on MDA-MB-435, with SF-268 CNS and in the assay on SF-295 CNS was greater than 100 µM in each case. Besides, the TGI in the assay on SK-OV-3 ovarian was greater than 100 µM.

Take `COc1cc(C2C(Cl)C(=O)N2NC(=O)c2ccc(NC(C)=O)cc2)ccc1O` (configuration not stated): the TGI with 786-0 renal, with EKVX NSCLC, in the assay with IGROV1 ovarian, in the assay on M14 melanoma, in the assay with SF-268 CNS and with SF-295 CNS was greater than 100 µM in each case. The same compound displayed a TGI in the assay with SK-OV-3 ovarian greater than 100 µM.

With `Cc1ccc(S(=O)(=O)NC(=O)NC(CCCCN=C(N)N)C(=O)O)cc1` (configuration not stated), the TGI with 786-0 renal, with IGROV1 ovarian, in the assay on KM12 colon, with M14 melanoma, in the assay with SF-268 CNS and in the assay with SF-295 CNS was greater than 100 µM in each case. Also, the TGI with SK-OV-3 ovarian and in the assay with SNB-75 CNS was greater than 100 µM each time.

In the case of `CCOC(=O)c1cc2c(OCc3ccccc3)c(OC)cc3c2c(n1)N(c1ccc(OC)cc1)C(C)C3` (configuration not stated), the TGI in the assay on 786-0 renal, in the assay with EKVX NSCLC, in the assay with IGROV1 ovarian, in the assay on M14 melanoma, with SF-268 CNS and in the assay with SF-295 CNS was greater than 50 µM each time. Besides, the TGI with SK-OV-3 ovarian and with SNB-75 CNS was greater than 50 µM each time.

For `C[S+](C)CC1OC(n2cnc3c(N)ncnc32)C(O)C1O` (configuration not stated), the TGI in the assay on EKVX NSCLC, in the assay on IGROV1 ovarian, in the assay on KM12 colon, with SF-268 CNS, with SF-295 CNS and in the assay with SK-OV-3 ovarian was greater than 225 µM in each case. This compound also had a TGI in the assay on SNB-75 CNS greater than 225 µM.

With `CN(C)CCNC(=O)c1cccc2cc3cc(O)ccc3nc12`, the TGI in the assay with EKVX NSCLC amounted to 5.24 µM; in the assay with IGROV1 ovarian, 4.43 µM; with KM12 colon, 10.4 µM; in the assay on SF-268 CNS it was 5.66 µM; in the assay on SF-295 CNS, 3.4 µM; in the assay with SK-OV-3 ovarian, 4.27 µM. The TGI in the assay with SNB-75 CNS was found to be 6.31 µM.

With `Cc1c(OCc2ccccc2)c(=O)ccn1CCc1c[nH]c2ccccc12`, the TGI is 87 µM with 786-0 renal; greater than 100 µM in the assay with EKVX NSCLC; greater than 100 µM in the assay with IGROV1 ovarian; greater than 100 µM in the assay on KM12 colon; 86.2 µM in the assay on M14 melanoma; 51.1 µM in the assay on MDA-MB-435. The TGI with SF-268 CNS was 64.1 µM; with SF-295 CNS, greater than 100 µM; with SK-OV-3 ovarian it was greater than 100 µM.

In the case of `CC1(C)C2CCC3(OCCO3)C1C(O)C2` (configuration not stated), the TGI with 786-0 renal, in the assay on EKVX NSCLC, with IGROV1 ovarian, with KM12 colon, with M14 melanoma and in the assay with SF-268 CNS was greater than 100 µM each time. For the same compound, the TGI in the assay on SF-295 CNS and in the assay on SNB-75 CNS was greater than 100 µM in each case.

With `COC(=O)CCc1c(Cc2ccc[nH]2)[nH]c(C(=O)OCc2ccccc2)c1C`, the TGI in the assay with 786-0 renal was determined as 31.4 µM; in the assay on EKVX NSCLC, 91.3 µM; with IGROV1 ovarian, 31.4 µM; in the assay on KM12 colon, 35.7 µM; in the assay on M14 melanoma it was 30.4 µM; in the assay on MDA-MB-435 it was 32.6 µM. In addition, the results for the TGI with SF-268 CNS, with SF-295 CNS and in the assay on SK-OV-3 ovarian were 53.7 µM, 53.3 µM and greater than 100 µM, respectively.

In the case of `NC(=O)c1cc(N(CCO)CCO)c([N+](=O)[O-])cc1[N+](=O)[O-]`, the TGI in the assay on 786-0 renal, in the assay with EKVX NSCLC, with IGROV1 ovarian, with KM12 colon, in the assay with M14 melanoma and with MDA-MB-435 was greater than 100 µM in each case. The TGI with SF-268 CNS, with SF-295 CNS and in the assay on SK-OV-3 ovarian was greater than 100 µM in each case.

With `CC(=O)OC12c3ccccc3C(c3ccccc31)C1C(=O)N(c3ccccn3)C(=O)C12` (configuration not stated), the TGI with 786-0 renal, with EKVX NSCLC, with IGROV1 ovarian, in the assay on KM12 colon, with M14 melanoma and in the assay with SF-268 CNS was greater than 100 µM each time. The TGI in the assay on SF-295 CNS, with SK-OV-3 ovarian and in the assay with SNB-75 CNS was greater than 100 µM throughout.

For the compound `O=NN(CCF)C(=O)NC1CC2CCC1C2` (configuration not stated), the TGI with EKVX NSCLC, with IGROV1 ovarian, in the assay on KM12 colon, with SF-268 CNS, with SF-295 CNS and with SK-OV-3 ovarian was greater than 100 µM in each case. This compound came in with a TGI in the assay on SNB-75 CNS greater than 100 µM.

As for `CC(=O)OC1C2CCC3C(C)(O)C4CC(O)C(C)(C)C4(O)C(O)CC13CC2(C)O` (configuration not stated), the TGI with 786-0 renal, in the assay with EKVX NSCLC, in the assay on IGROV1 ovarian, in the assay with KM12 colon, with M14 melanoma and with SF-268 CNS was greater than 100 µM each time. For the same compound, the TGI in the assay with SF-295 CNS, with SK-OV-3 ovarian and in the assay on SNB-75 CNS was greater than 100 µM throughout.

Turning to `COc1ccc2c(c1)OCCc1cn[nH]c1-2`, the TGI with EKVX NSCLC was 12.3 µM; in the assay with IGROV1 ovarian it was 56.1 µM; in the assay on KM12 colon, greater than 100 µM; in the assay with SF-268 CNS, greater than 100 µM; in the assay on SF-295 CNS, greater than 100 µM; in the assay with SK-OV-3 ovarian it was greater than 100 µM. For the same compound, the TGI in the assay on SNB-75 CNS was greater than 100 µM.

(Values after PubChem BioAssay (NCI).)
